Data: article PMC11620482, “Phase 1 drug-drug interaction study to assess the effect of CYP3A4 inhibition and pan-CYP induction on the pharmacokinetics and safety of fosmanogepix in healthy participants” (Antimicrobial Agents and Chemotherapy, 2024)
Where two headings read alike, the source gives them in different places.

What was measured:
[1] = Plasma pharmacokinetics of MGX and FMGX (noncompartmental analysis), phase 1 fixed-sequence DDI study with itraconazole or rifampin; type: in vivo, human; details: for Vd: read-out: MGX Vz; for Tmax: median (range)
Experimental: In cohort 1, MGX plasma samples were collected at specified time points daily on days 1–4, once every 2 days on days 6–14, daily for 3 days from days 18 to 20, once every 2 days from days 21 to 29, and then on day 31, while itraconazole samples were collected at specified time points on days 19, 25, and 31. […] PK parameters were calculated using noncompartmental analysis from the plasma concentration-time data for MGX and FMGX. Primary PK parameters were maximum observed plasma concentration (Cmax), AUC from time 0 to infinity (AUC0-inf), and AUC up to time t (AUC0-t, where t was the last time point with concentrations above the lower limit of quantitation). […] Secondary PK parameters were time to attain Cmax (Tmax), AUC from time 0 to 23 hours (AUC0-23), terminal elimination half-life after the last dosing on the day (t1/2), clearance (CL), volume of distribution at terminal phase (Vz), and terminal phase rate constant after the last dosing on the day (λz).

[2] = system: phosphatidylinositol glycan anchor biosynthesis class W (PIGW); parameters: method as in PMID 33105672, PMID 34626339; details: cited from earlier work
[3] = mice infected with C. albicans and C. glabrata; cited from earlier work
[4] = system: human CYPs; details: cited from earlier work
[5] = system: CYP1A2; details: cited from earlier work
[6] = system: CYP2A6; details: cited from earlier work
[7] = system: CYP2B6; details: cited from earlier work
[8] = system: CYP2C8; details: cited from earlier work
[9] = system: CYP2C9; details: cited from earlier work
[10] = system: CYP2C19; details: cited from earlier work
[11] = system: CYP2D6; details: cited from earlier work
[12] = system: CYP2E1; details: cited from earlier work
[13] = system: CYP3A4; details: cited from earlier work
[14] = system: recombinant human CYP (rCYP) enzymes; details: cited from earlier work

With Nc1ncccc1-c1cc(Cc2ccc(COc3ccccn3)cc2)no1 [MGX, manogepix] the “MGX Vz” value ([1]; FMGX only 1000 mg BID IV, D1, Cohort 2, n = 17, geometric mean (geometric %CV)) was 190 (40.8) L, the AUC(0-inf) ([1]; human, in vivo, FMGX 500 mg BID IV D18 + ITR 200 mg QD PO D15-30, Cohort 1, n = 16, geometric mean (geometric %CV), read-out: MGX AUC(0-inf)) was 458 µg·h/mL and the AUC(0-t) ([1]; human, in vivo, FMGX 500 mg BID IV D18 + ITR 200 mg QD PO D15-30, Cohort 1, n = 16, geometric mean (geometric %CV), read-out: MGX AUC(0-t)) was 421 µg·h/mL. For the same compound, the Cmax ([1]; human, in vivo, FMGX 500 mg BID IV D18 + ITR 200 mg QD PO D15-30, Cohort 1, n = 16, geometric mean (geometric %CV), read-out: MGX Cmax) was 7060 ng/mL, the Vd ([1]; human, in vivo, FMGX 500 mg BID IV D18 + ITR 200 mg QD PO D15-30, Cohort 1, n = 16, geometric mean (geometric %CV)) was 195 L and the AUC(0-inf) ([1]; human, in vivo, FMGX 500 mg BID IV D18 + ITR 200 mg QD PO D15–30, Cohort 1, n = 16, read-out: MGX AUC(0-inf), least squares geometric mean) was 458 µg·h/mL. It also gave an AUC(0-t) ([1]; human, in vivo, FMGX 500 mg BID IV D18 + ITR 200 mg QD PO D15–30, Cohort 1, n = 16, read-out: MGX AUC(0-t), least squares geometric mean) of 421 µg·h/mL, a Cmax ([1]; human, in vivo, FMGX 500 mg BID IV D18 + ITR 200 mg QD PO D15–30, Cohort 1, n = 16, read-out: MGX Cmax, least squares geometric mean) of 7060 ng/mL and an AUC(0-inf) ([1]; human, in vivo, FMGX 1,000 mg BID IV D24 + RIF 600 mg QD PO D15–33, Cohort 2, n = 17, geometric mean (geometric %CV), read-out: MGX AUC(0-inf)) of 450 µg·h/mL. It also gave an AUC(0-t) ([1]; human, in vivo, FMGX 1,000 mg BID IV D24 + RIF 600 mg QD PO D15–33, Cohort 2, n = 17, geometric mean (geometric %CV), read-out: MGX AUC(0-t)) of 436 µg·h/mL, a Cmax ([1]; human, in vivo, FMGX 1,000 mg BID IV D24 + RIF 600 mg QD PO D15–33, Cohort 2, n = 17, geometric mean (geometric %CV), read-out: MGX Cmax) of 12100 ng/mL and a Vd ([1]; human, in vivo, FMGX 1,000 mg BID IV D24 + RIF 600 mg QD PO D15–33, Cohort 2, n = 17, geometric mean (geometric %CV)) of 205 L. The AUC(0-inf) ([1]; human, in vivo, FMGX 1,000 mg BID IV D24 + RIF 600 mg QD PO D15–33, Cohort 2, n = 17, read-out: MGX AUC(0-inf), least squares geometric mean) was 450 µg·h/mL, the AUC(0-t) ([1]; human, in vivo, FMGX 1,000 mg BID IV D24 + RIF 600 mg QD PO D15–33, Cohort 2, n = 17, read-out: MGX AUC(0-t), least squares geometric mean) was 436 µg·h/mL and the Cmax ([1]; human, in vivo, FMGX 1,000 mg BID IV D24 + RIF 600 mg QD PO D15–33, Cohort 2, n = 17, read-out: MGX Cmax, least squares geometric mean) was 12100 ng/mL. The half-life ([1]; human, in vivo, Terminal elimination half-life for MGX) was about 78 h, the AUC(0-inf) ([1]; human, in vivo, iv, 500 mg, FMGX only 500 mg BID IV, D1, Cohort 1, n = 16, geometric mean (geometric %CV), read-out: MGX AUC(0-inf)) was 460 µg·h/mL and the AUC(0-t) ([1]; human, in vivo, iv, 500 mg, FMGX only 500 mg BID IV, D1, Cohort 1, n = 16, geometric mean (geometric %CV), read-out: MGX AUC(0-t)) was 429 µg·h/mL. It also gave a Cmax ([1]; human, in vivo, iv, 500 mg, FMGX only 500 mg BID IV, D1, Cohort 1, n = 16, geometric mean (geometric %CV), read-out: MGX Cmax) of 6940 ng/mL, a Vd ([1]; human, in vivo, iv, 500 mg, FMGX only 500 mg BID IV, D1, Cohort 1, n = 16, geometric mean (geometric %CV)) of 185 L and an AUC(0-inf) ([1]; human, in vivo, iv, 500 mg, FMGX only 500 mg BID IV, D1, Cohort 1, n = 16, read-out: MGX AUC(0-inf), least squares geometric mean) of 460 µg·h/mL. The AUC(0-t) ([1]; human, in vivo, iv, 500 mg, FMGX only 500 mg BID IV, D1, Cohort 1, n = 16, read-out: MGX AUC(0-t), least squares geometric mean) was 429 µg·h/mL, the Cmax ([1]; human, in vivo, iv, 500 mg, FMGX only 500 mg BID IV, D1, Cohort 1, n = 16, read-out: MGX Cmax, least squares geometric mean) was 6940 ng/mL and the clearance ([1]; human, in vivo, iv, 500 mg, MGX CL) was 27.7 mL/min. The half-life ([1]; human, in vivo, iv, 500 mg, MGX t1/2) was 77.3 h, the “MGX CL” value ([1]; human, in vivo, iv, 1000 mg) was 1,862 (18.5) mL/h and the AUC(0-inf) ([1]; human, in vivo, iv, 1000 mg, FMGX only 1000 mg BID IV, D1, Cohort 2, n = 17, geometric mean (geometric %CV), read-out: MGX AUC(0-inf)) was 822 µg·h/mL. It also gave an AUC(0-t) ([1]; human, in vivo, iv, 1000 mg, FMGX only 1000 mg BID IV, D1, Cohort 2, n = 17, geometric mean (geometric %CV), read-out: MGX AUC(0-t)) of 772 µg·h/mL, a Cmax ([1]; human, in vivo, iv, 1000 mg, FMGX only 1000 mg BID IV, D1, Cohort 2, n = 17, geometric mean (geometric %CV), read-out: MGX Cmax) of 13900 ng/mL and an AUC(0-inf) ([1]; human, in vivo, iv, 1000 mg, FMGX only 1,000 mg BID IV, D1, Cohort 2, n = 17, read-out: MGX AUC(0-inf), least squares geometric mean) of 822 µg·h/mL. For the same compound, the AUC(0-t) ([1]; human, in vivo, iv, 1000 mg, FMGX only 1,000 mg BID IV, D1, Cohort 2, n = 17, read-out: MGX AUC(0-t), least squares geometric mean) was 772 µg·h/mL, the Cmax ([1]; human, in vivo, iv, 1000 mg, FMGX only 1,000 mg BID IV, D1, Cohort 2, n = 17, read-out: MGX Cmax, least squares geometric mean) was 13900 ng/mL and the half-life ([1]; human, in vivo, iv, 1000 mg, MGX t1/2) was 70.7 h. It also gave a Tmax ([1]; human, in vivo, FMGX 500 mg BID IV D18 + ITR 200 mg QD PO D15-30, Cohort 1, n = 16) of 12 h, a Tmax ([1]; human, in vivo, FMGX only 500 mg BID IV, D1, Cohort 1, n = 16) of 12 h and a Tmax ([1]; human, in vivo, FMGX only 1000 mg BID IV, D1, Cohort 2, n = 17) of 12 h. The “Inhibition of PIGW, closest mammalian ortholog of GWT1” value [2] was “not inhibited”, the “Exposure (AUC) and half-life of MGX after pre-administration of 1-aminobenzotriazole” value [3] was “increase” and the “Reversible inhibition, other CYP isoforms” value [4] was “Weak or no inhibition”. The “Reversible inhibition of CYP1A2” value [5] was “observed”, the “Time-dependent inhibition of CYP1A2” value [5] was “no time-dependent inhibition” and the “Time-dependent inhibition of CYP2A6” value [6] was “no time-dependent inhibition”. For the same compound, the “Reversible inhibition of CYP2B6” value [7] was “observed”, the “Time-dependent inhibition of CYP2B6” value [7] was “weak time-dependent inhibition” and the “Reversible inhibition of CYP2C8” value [8] was “observed”. The “Time-dependent inhibition of CYP2C8” value [8] was “no time-dependent inhibition”, the “Reversible inhibition of CYP2C9” value [9] was “observed” and the “Time-dependent inhibition of CYP2C9” value [9] was “no time-dependent inhibition”. For the same compound, the “Reversible inhibition of CYP2C19” value [10] was “observed”, the “Time-dependent inhibition of CYP2C19” value [10] was “no time-dependent inhibition” and the “Reversible inhibition of CYP2D6” value [11] was “observed”. For the same compound, the “Time-dependent inhibition of CYP2D6” value [11] was “no time-dependent inhibition”, the “Time-dependent inhibition of CYP2E1” value [12] was “no time-dependent inhibition” and the “Reversible inhibition of CYP3A4” value [13] was “observed”. The “Time-dependent inhibition of CYP3A4” value [13] was “weak time-dependent inhibition” and the “Enzymes involved in formation of MGX-derived metabolites” value [14] was “multiple recombinant human CYP (rCYP) enzymes were involved”.
